Source: ChEMBL document CHEMBL2016457, “Discovery of potent and orally bioavailable 17β-hydroxysteroid dehydrogenase type 3 inhibitors” (Bioorg Med Chem, 2012)
Activity calls are given as the source filed them. How the calls were made is not given here.

Key:
[1] = molecular target: T1, 17-beta-hydroxysteroid dehydrogenase type 1 (Homo sapiens) (UniProt P14061); assay: Inhibition of human recombinant 17-beta-HSD1 expressed in human HeLa cells using estrone as substrate preincubated for 30 mins prior substrate addition measured after 120 mins by spectrophotometry; assay type: cell-based
T1 sequence (whole entry): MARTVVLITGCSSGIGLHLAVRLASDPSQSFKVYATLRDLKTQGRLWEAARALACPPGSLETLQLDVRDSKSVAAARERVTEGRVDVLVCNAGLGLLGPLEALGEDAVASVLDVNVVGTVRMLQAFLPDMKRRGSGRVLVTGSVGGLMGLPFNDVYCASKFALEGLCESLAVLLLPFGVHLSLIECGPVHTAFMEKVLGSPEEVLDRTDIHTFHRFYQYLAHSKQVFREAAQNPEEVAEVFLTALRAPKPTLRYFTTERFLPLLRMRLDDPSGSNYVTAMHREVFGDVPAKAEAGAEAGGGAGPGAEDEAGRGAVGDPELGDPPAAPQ

[2] = molecular target: T2, 17-beta-hydroxysteroid dehydrogenase type 2 (Homo sapiens) (UniProt P37059); assay: Inhibition of human recombinant 17-beta-HSD2 expressed in human HeLa cells using estradiol as substrate preincubated for 30 mins prior substrate addition measured after 120 mins by spectrophotometry; assay type: cell-based
T2 sequence (whole entry): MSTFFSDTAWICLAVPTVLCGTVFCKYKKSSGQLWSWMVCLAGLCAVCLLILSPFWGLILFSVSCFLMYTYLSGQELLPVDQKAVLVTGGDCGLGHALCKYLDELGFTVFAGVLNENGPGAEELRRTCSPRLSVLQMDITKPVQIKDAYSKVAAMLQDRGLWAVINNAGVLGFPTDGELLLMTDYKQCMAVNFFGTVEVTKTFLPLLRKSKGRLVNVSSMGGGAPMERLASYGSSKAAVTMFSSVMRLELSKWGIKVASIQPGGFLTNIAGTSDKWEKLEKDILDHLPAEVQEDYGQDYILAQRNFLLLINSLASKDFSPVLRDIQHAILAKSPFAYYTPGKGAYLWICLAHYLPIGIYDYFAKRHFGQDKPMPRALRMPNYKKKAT

[3] = molecular target: T3, Androgen receptor (Homo sapiens) (UniProt P10275); assay: Agonist activity at human androgen receptor expressed in human HeLa cells assessed as DHT-induced response after 40 hrs by luciferase/beta-galactosidase-based reporter gene assay; assay type: functional, cell-based
T3 sequence (whole entry): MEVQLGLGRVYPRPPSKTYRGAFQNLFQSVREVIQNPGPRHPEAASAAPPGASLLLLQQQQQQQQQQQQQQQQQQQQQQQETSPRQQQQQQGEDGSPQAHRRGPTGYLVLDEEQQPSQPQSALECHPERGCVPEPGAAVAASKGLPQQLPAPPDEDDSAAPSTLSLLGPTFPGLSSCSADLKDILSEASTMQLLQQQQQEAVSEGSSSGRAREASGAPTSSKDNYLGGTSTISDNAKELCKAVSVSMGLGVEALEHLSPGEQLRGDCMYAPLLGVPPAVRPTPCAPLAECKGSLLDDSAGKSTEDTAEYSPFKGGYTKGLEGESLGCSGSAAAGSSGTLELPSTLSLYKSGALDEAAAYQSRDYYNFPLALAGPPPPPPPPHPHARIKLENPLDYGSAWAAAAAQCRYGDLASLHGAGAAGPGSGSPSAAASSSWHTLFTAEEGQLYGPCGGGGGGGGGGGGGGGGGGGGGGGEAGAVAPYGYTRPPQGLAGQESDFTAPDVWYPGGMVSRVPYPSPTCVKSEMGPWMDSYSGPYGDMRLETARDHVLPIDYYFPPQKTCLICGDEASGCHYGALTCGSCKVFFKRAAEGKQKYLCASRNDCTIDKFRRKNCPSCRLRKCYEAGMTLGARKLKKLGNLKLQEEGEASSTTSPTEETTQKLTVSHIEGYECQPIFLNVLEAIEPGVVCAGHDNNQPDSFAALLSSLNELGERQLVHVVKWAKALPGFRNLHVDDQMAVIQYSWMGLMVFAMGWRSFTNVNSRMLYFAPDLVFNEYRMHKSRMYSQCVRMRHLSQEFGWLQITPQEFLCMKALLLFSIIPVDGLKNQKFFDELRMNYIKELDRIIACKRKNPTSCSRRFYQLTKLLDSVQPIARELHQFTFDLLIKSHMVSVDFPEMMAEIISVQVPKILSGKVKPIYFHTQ

[4] = molecular target: T4, Estrogen receptor (Homo sapiens) (UniProt P03372); assay: Agonist activity at human Estrogen receptor ERalpha expressed in human HeLa cells assessed as DHT-induced response after 40 hrs by luciferase/beta-galactosidase-based reporter gene assay; assay type: functional, cell-based
T4 sequence (whole entry): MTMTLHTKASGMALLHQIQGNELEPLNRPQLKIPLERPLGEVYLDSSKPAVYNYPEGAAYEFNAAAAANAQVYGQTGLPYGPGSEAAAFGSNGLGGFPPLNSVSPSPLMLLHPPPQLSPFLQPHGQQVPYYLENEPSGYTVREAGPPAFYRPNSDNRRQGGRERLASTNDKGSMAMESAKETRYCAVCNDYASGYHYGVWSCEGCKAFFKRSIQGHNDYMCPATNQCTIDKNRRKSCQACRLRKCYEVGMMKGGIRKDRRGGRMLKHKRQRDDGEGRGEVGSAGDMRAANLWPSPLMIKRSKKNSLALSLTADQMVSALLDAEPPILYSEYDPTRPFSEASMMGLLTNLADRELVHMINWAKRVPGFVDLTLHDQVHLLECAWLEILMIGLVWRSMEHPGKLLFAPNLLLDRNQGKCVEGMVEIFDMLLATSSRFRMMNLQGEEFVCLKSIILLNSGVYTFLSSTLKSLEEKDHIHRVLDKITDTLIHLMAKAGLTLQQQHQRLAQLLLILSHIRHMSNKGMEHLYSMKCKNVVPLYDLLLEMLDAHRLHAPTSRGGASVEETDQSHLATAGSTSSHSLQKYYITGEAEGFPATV

[5] = molecular target: T5, Glucocorticoid receptor (Homo sapiens) (UniProt P04150); assay: Agonist activity at human Glucocorticoid receptor expressed in human HeLa cells assessed as DHT-induced response after 40 hrs by luciferase/beta-galactosidase-based reporter gene assay; assay type: functional, cell-based
T5 sequence (whole entry): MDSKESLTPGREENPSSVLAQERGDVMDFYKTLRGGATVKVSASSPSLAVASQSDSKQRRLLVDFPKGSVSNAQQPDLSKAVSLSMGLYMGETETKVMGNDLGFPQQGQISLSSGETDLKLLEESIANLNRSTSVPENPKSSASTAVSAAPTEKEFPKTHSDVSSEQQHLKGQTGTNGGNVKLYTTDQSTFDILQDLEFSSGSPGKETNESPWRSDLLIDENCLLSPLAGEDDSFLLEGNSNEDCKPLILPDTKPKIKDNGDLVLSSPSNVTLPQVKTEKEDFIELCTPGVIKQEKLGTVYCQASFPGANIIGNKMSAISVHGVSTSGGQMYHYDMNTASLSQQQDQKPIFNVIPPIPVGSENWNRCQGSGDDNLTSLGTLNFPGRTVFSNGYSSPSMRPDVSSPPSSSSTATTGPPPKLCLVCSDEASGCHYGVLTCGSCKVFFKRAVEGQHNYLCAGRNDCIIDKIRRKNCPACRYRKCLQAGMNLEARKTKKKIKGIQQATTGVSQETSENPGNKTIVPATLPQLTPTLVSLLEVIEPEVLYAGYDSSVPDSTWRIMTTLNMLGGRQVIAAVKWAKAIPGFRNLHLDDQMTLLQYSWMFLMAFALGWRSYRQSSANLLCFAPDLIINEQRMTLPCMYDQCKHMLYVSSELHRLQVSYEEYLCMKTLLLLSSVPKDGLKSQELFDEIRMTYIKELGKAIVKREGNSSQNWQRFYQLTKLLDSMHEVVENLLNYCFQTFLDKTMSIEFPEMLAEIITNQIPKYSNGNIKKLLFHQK

[6] = molecular target: T3, Androgen receptor (Homo sapiens); assay: Antagonist activity at human androgen receptor expressed in human HeLa cells assessed as inhibition of DHT-induced response after 40 hrs by luciferase/beta-galactosidase-based reporter gene assay; assay type: functional, cell-based
[7] = molecular target: T4, Estrogen receptor (Homo sapiens); assay: Antagonist activity at human ERalpha receptor expressed in human HeLa cells assessed as inhibition of DHT-induced response after 40 hrs by luciferase/beta-galactosidase-based reporter gene assay; assay type: functional, cell-based
[8] = molecular target: T5, Glucocorticoid receptor (Homo sapiens); assay: Antagonist activity at human GR receptor expressed in human HeLa cells assessed as inhibition of DHT-induced response after 40 hrs by luciferase/beta-galactosidase-based reporter gene assay; assay type: functional, cell-based
[9] = molecular target: T6, 17-beta-hydroxysteroid dehydrogenase type 3 (Homo sapiens, UniProt P37058)
T6 sequence (P37058 whole entry): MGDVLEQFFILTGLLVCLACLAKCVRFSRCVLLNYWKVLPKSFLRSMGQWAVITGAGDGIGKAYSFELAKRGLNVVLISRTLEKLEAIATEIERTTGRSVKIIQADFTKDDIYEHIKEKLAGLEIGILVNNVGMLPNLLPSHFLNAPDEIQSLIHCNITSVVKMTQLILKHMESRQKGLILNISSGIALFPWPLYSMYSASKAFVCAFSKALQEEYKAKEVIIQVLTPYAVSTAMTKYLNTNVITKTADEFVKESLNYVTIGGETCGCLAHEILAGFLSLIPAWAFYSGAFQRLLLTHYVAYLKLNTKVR
Description: Inhibition of human recombinant 17-beta-HSD3 expressed in human HeLa cells using androstenedione as substrate preincubated for 30 mins prior substrate addition measured after 120 mins by spectrophotometry

SMILES | inhibition [1] | inhibition [2] | Activity [3] | Activity [4] | Activity [5] | Activity [6] | Activity [7] | Activity [8] | IC50 [9] [nM]
COc1ccc(N2C(=O)/C(=C/c3ccc(O)c(Br)n3)OC2=S)cc1 | inactive | inactive | inactive | inactive | inactive | inactive | inactive | inactive | 42
O=C(c1ccc(N2C(=O)O/C(=C\c3ccc(O)c(Br)c3)C2=O)cc1)N1CCOCC1 | inactive | inactive | inactive | inactive | inactive | inactive | inactive | inactive | 300
COc1ccc(N2C(=O)/C(=C/c3ccc(O)cc3)OC2=S)cc1 | inactive | inactive | inactive | inactive | inactive | inactive | inactive | inactive | 121
COc1ccc(N2C(=O)/C(=C/c3ccc(O)cc3Cl)OC2=S)cc1 | inactive | inactive | inactive | inactive | inactive | inactive | inactive | inactive | 5
COc1ccccc1N1C(=O)/C(=C/c2ccc(O)c(Br)c2)OC1=S | inactive | inactive | inactive | inactive | inactive | inactive | inactive | inactive | 60
O=C1/C(=C/c2ccc(O)c(Br)c2)SC(=S)N1C1CCCCC1 | inactive | inactive | inactive | inactive | inactive | inactive | inactive | inactive | 3
CN1C(=O)/C(=C/c2ccc(O)c(Br)c2)SC1=S | inactive | inactive | inactive | inactive | inactive | inactive | inactive | inactive | 890
COc1ccc(N2C(=O)/C(=C/c3ccc(O)c(F)c3)OC2=S)cc1 | inactive | inactive | inactive | inactive | inactive | inactive | inactive | inactive | 2
COc1ccc(N2C(=O)/C(=C/c3cc(F)c(O)c(Cl)c3)OC2=S)cc1 | inactive | inactive | inactive | inactive | inactive | inactive | inactive | inactive | 1
O=C1/C(=C/c2ccc(O)c(Br)c2)OC(=S)N1c1ccc(F)cc1 | inactive | inactive | inactive | inactive | inactive | inactive | inactive | inactive | 2
O=C1/C(=C/c2ccc(O)c(Br)c2)OC(=S)N1c1ccc(Cl)cc1 | inactive | inactive | inactive | inactive | inactive | inactive | inactive | inactive | 6
